Results taken from US20130137716A1, “PARENTERAL DEXTROSE FORMULATION OF CLOPIDOGREL” (ACADEMIC PHARMACEUTICALS INCORPORATED, priority 2011, published 2013).

Assay: Storage stability of clopidogrel solution at room temperature and at 40°
Type: physicochemical

Structure (SMILES): COC(=O)[C@H](c1ccccc1Cl)N1CCc2sccc2C1 [clopidogrel]
- ability of solvent to form a stable solution of clopidogrel (D5W (5% dextrose in water)): not capable of forming a stable solution
- ability of solvent to form a stable solution of clopidogrel (D50W (50% dextrose in water), room temperature and 40°): capable of forming a stable solution
